According to publication PMC7376037, “Recombinant expression, purification and PEGylation of Paneth cell peptide (cryptdin-2) with value added attributes against Staphylococcus aureus” (Scientific Reports, 2020):
Values after ≈ are worked out from the molar mass of the structure shown. Read-outs that look alike come from different tables or passages of the source. Bridge positions count the residues as written; N and C are the ends. Peptide text beside a SMILES is read from it.

Experiments:
RAW 264.7 cell lines = assay: Cell cytotoxicity assay (AlamarBlue); type: cell-based, murine; conditions: 24 h
Description: The cytotoxicity of recombinant peptide variants towards RAW 264.7 cell lines was assessed using AlamarBlue (Resazurin), a cell metabolic activity reagent (Sigma)[40]. The log phase cells diluted (2 × 10^5/well) in Dulbecco's Modified Eagle Medium (DMEM) containing 10% fetal bovine serum (FBS) were cultured in 96-well microtiter plates and incubated for 12 h under 5% CO2 conditions at 37 °C. […] Following this, 0.02% Alamar blue reagent was added to the cells and incubated for 8 h. Fluorescence was measured with excitation wavelength at 545 nm and emission wavelength at 590 nm. The percent difference between treated and un-treated cells was calculated to determine percent cytotoxicity.

[1] = Serum stability (antimicrobial activity after incubation in mice sera); type: in vitro ADME; conditions: for reduction of antibacterial activity after 3 h incubation with mice sera: peptide at its MIC, 50% mice serum, 37 °C, read-out micro broth dilution against S. aureus, repeated thrice in triplicates
Description: The stability of purified peptide preparations in mice sera was evaluated as described previously[15] with some modifications. Briefly, 80 µL of 50% serum was added to each well of 96-well plates followed by addition of 10 µL of bacterial suspension. The total CFU/mL value was adjusted to be identical in all the samples. Each peptide preparation (10 μL) was added to different wells and incubated at 37 °C for 0, 3, and 6 h respectively. The antimicrobial activities were assessed by performing micro broth dilution assay as described above for determination of MIC against S. aureus. The sera of mice were confirmed for absence of any intrinsic antimicrobial activity prior to performing the test.

Staphylococcus aureus [2] = type: cell-based; conditions: for MIC in combination, Peptides: peptide concentration in combination with gentamicin, checkerboard, S. aureus
Description: To investigate the interactive effect of these recombinant peptides, a checkerboard assay[41] was performed using a clinically prescribed antibiotic (gentamicin) as the other antibacterial agent. The assay employs the same methodology followed for determination of the MIC as described above. MIC values of peptide and gentamicin were used in this assay in order to calculate the FIC values. All the three peptide variants and gentamicin were tried in different ratios to evaluate interaction of the agents in combination against S. aureus. The same was determined on the basis of the FIC index, wherein an index of ≤ 0.5 indicated a synergistic effect and an index > 0.5 and ≤ 2 indicated an additive or indifferent nature of interaction respectively and lastly, the interaction was confirmed to be antagonistic when the index was > 2.0.
FIC index is expressed as: FIC Index=A1/A+B1/B where A1 and B1 are the respective concentrations of gentamicin and peptide producing the combined MICs, while A and B are the MICs of the individual agents.

Staphylococcus aureus [3] = assay: Radial diffusion (agar well diffusion) assay; type: cell-based, Staphylococcus aureus (ATCC 9144); conditions: peptide 100 µg/well, overnight 37 °C, S. aureus
Description: Antibacterial activity of all the cryptdin preparations was evaluated by performing radial diffusion assay. […] Following the addition of 20 μL aliquots of the cryptdin-2 preparations along with control sample (PBS) into a series of wells made in the gel, the plates were incubated overnight at 37 °C. The samples were examined for zone of clearance around the wells indicating inhibition of bacterial growth.

Staphylococcus aureus [4] = assay: microbe, parasite or virus in culture; type: cell-based, Staphylococcus aureus (ATCC 9144)
Description: To determine MIC values of the peptide preparations, micro broth dilution assay was performed. Briefly, S. aureus cells were grown to mid-exponential phase and diluted to a concentration of approximately 10^7 CFU/mL. Different concentrations of AMP preparations were separately added to wells containing bacterial suspension (approximately 10^6 CFU/mL) in sterile 96-well flat-bottom plate. After incubation at 37 °C, cell growth inhibition was assessed by measuring the absorbance at 595 nm on microplate reader (BioTek). MIC was recorded as the lowest concentration of the peptide preparation at which no visible growth was observed.

[5] = cited from earlier work
From the text: However, lesser adverse effect was observed on cell membrane when treated with the PEGylated peptide. These findings correlated well with the increased MIC of the peptide as observed above. It is highly probable that site-specific mutation followed by PEG-conjugat ...

CSCC[C@@H]1NC(=O)[C@H](CCCNC(=N)N)NC(=O)[C@H](CS)NC(=O)[C@H](CCCNC(=N)N)NC(=O)[C@H](CCCNC(=N)N)NC(=O)[C@H](CCCCN)NC(=O)[C@@H]2CSSC[C@@H]3NC(=O)[C@H](CC(C)C)NC(=O)[C@H]([C@@H](C)O)NC(=O)[C@H](Cc4ccc(O)cc4)NC(=O)[C@H](CCSC)NC(=O)[C@H](CC(C)C)NC(=O)[C@H](Cc4c[nH]cn4)NC(=O)CNC(=O)[C@H](CCCCN)NC(=O)[C@H](CCCNC(=N)N)NC(=O)[C@H](CSSC[C@H](NC(=O)[C@H](Cc4ccc(O)cc4)NC(=O)[C@@H](NC(=O)[C@@H](NC(=O)[C@H](CC(C)C)NC(=O)[C@H](CC(=O)O)NC(=O)[C@H](CCCNC(=N)N)NC(=O)[C@@H](N)CC(C)C)C(C)C)CSSC[C@@H](C(=O)N[C@@H](CCCNC(=N)N)C(=O)O)NC3=O)C(=O)N[C@@H](CCCNC(=N)N)C(=O)N[C@@H]([C@@H](C)O)C(=O)N[C@@H](CCCNC(=N)N)C(=O)NCC(=O)N2)NC(=O)[C@H]([C@@H](C)O)NC(=O)CNC(=O)[C@H](CC(N)=O)NC1=O [E18C cryptdin-2] (H-LRDLVCYCRTRGCKRRCRMNGTCRKGHLMYTLCCR-OH; disulfide 6-34, 8-23, 13-33)
cell viability (RAW 264.7 cell lines): ~65%
MIC after incubation with serum, 0 h [1]: 20 µg/mL
MIC after incubation with serum, 3 h [1]: 40 µg/mL
MIC after incubation with serum, 6 h [1]: 60 µg/mL
reduction of antibacterial activity after 3 h incubation with mice sera [1]: 50%
FIC indices (Staphylococcus aureus [2]): 0.375
MIC in combination, Peptides (Staphylococcus aureus [2]): 2.5 µg/mL
antimicrobial activity, zone of growth inhibition (Staphylococcus aureus [3]): potent antimicrobial activity

CNC(C)C1CCC(N)C(OC2C(N)CC(N)C(OC3OCC(C)(O)C(NC)C3O)C2O)O1 (stereo not shown) [Gentamicin, gentamicin, reference compound]
MIC (Staphylococcus aureus [4]; agent alone against Staphylococcus aureus, Table 1, read-out: MIC): 0.097 µg/mL (≈ 0.203 µM)

CSCC[C@@H]1NC(=O)[C@H](CCCNC(=N)N)NC(=O)[C@H](CCC(=O)O)NC(=O)[C@H](CCCNC(=N)N)NC(=O)[C@H](CCCNC(=N)N)NC(=O)[C@H](CCCCN)NC(=O)[C@@H]2CSSC[C@@H]3NC(=O)[C@H](CC(C)C)NC(=O)[C@H]([C@@H](C)O)NC(=O)[C@H](Cc4ccc(O)cc4)NC(=O)[C@H](CCSC)NC(=O)[C@H](CC(C)C)NC(=O)[C@H](Cc4c[nH]cn4)NC(=O)CNC(=O)[C@H](CCCCN)NC(=O)[C@H](CCCNC(=N)N)NC(=O)[C@H](CSSC[C@H](NC(=O)[C@H](Cc4ccc(O)cc4)NC(=O)[C@@H](NC(=O)[C@@H](NC(=O)[C@H](CC(C)C)NC(=O)[C@H](CC(=O)O)NC(=O)[C@H](CCCNC(=N)N)NC(=O)[C@@H](N)CC(C)C)C(C)C)CSSC[C@@H](C(=O)N[C@@H](CCCNC(=N)N)C(=O)O)NC3=O)C(=O)N[C@@H](CCCNC(=N)N)C(=O)N[C@@H]([C@@H](C)O)C(=O)N[C@@H](CCCNC(=N)N)C(=O)NCC(=O)N2)NC(=O)[C@H]([C@@H](C)O)NC(=O)CNC(=O)[C@H](CC(N)=O)NC1=O [cryptdin-2] (H-LRDLVCYCRTRGCKRRERMNGTCRKGHLMYTLCCR-OH; disulfide 6-34, 8-23, 13-33)
cell viability (RAW 264.7 cell lines): approximately 70%
MIC (Staphylococcus aureus [4]): 20 µg/mL (≈ 4.71 µM)
MIC after incubation with serum, 0 h [1]: 20 µg/mL
MIC after incubation with serum, 3 h [1]: 40 µg/mL
MIC after incubation with serum, 6 h [1]: 70 µg/mL
reduction of antibacterial activity after 3 h incubation with mice sera [1]: 50%
MIC in combination, Peptides (Staphylococcus aureus [2]): 2.5 µg/mL
antimicrobial activity, zone of growth inhibition (Staphylococcus aureus [3]): potent antimicrobial activity

magainin 2
decrease in antimicrobial activity after PEG conjugation ([5]; 5 kDa PEG at N-terminal end): fourfold

nisin
antimicrobial activity after PEGylation ([5]; PEGylation via amine group of the lysine side-chain): inactive conjugate
